Counter-ions that a name gives are not always drawn.
Legend:
[1] = tested on: soybean (Glycine max) Adelphia; assay: Dwarfing and stem stiffening of soybeans (plant height, greenhouse, foliar spray); type: in vivo; conditions: three weeks after spraying
Protocol: (§1) In the following tests, test compounds are dissolved or dispersed in acetone-water (1:1) mixtures at the final concentration corresponding to the kg/ha rates indicated in the table below. The solution also contains 0.25% v/v colloidal BIOFILM® (a product of Colloidal Products Corp.) which is a mixture of alkyl aryl polyethoxyethanol, free and combined fatty acids, glycol ethers, dialkylbenzene carboxylate and 2-propanol.
(§2) The plant species used in these tests are barley (Hordeum vulgare), (Mexico) and soybean (Glycine max)Adelphia.
(§3) The solution or dispersion of the compound under test is sprayed at a rate of 747 l/ha with a moving nozzle along an overhead stationary track. The spray nozzle moves at a constant speed over the plants.
(§4) The plants are grown in plastic pots, and are well established at the time of treatment. The seedlings of barley are 10 to 20 cm in height, while the seedlings of soybeans are at the second to third trifoliate stage. Plants are watered prior to treatment and then sprayed to provide the kg/ha rate of test compound desired. After spraying the plants are placed on greenhouse benches and watered and fertilized in accordance with normal greenhouse procedures.
(§5) Three weeks after spraying the plants are measured and harvested. Harvesting is done at the boot stage. All treatments are replicated six times and comparisons are made against untreated controls. Data obtained are reported in Table VI below as percent reduction in plant height over untreated controls.

[2] = tested on: soybeans (Glycine max) Adelphia variety; assay: Increasing axillary branching and improving the canopy of broad leaf plants (soybeans); type: in vivo, soybean (Glycine max); conditions: three weeks after treatment
Description: In these tests seedling soybean plants approximately three weeks old, and grown in plastic pots to the 2nd to 3rd trifoliate stage, are sprayed with solutions or dispersions of test compound prepared as described in Example 7 above. The same spraying apparatus, described in Example 7 above, is used and after spraying the plants are placed on greenhouse benches and watered and fertilized. Three weeks after treatment the plants are examined to determine what effect the application of test compound has had on the axillary branching and canopy development of the treated plants.
Increased axillary branching and improved canopy are biological responses which are highly advantageous in the growing of ornamental plants. These responses also have advantage in many crops since increased branching may result in the greater production of fruit, while improved canopy tends to shade and suppress the growth of undesirable weeds that compete with the crops for sunlight, water and plant nutrients. Data obtained are reported in table VII below where axillary branching and canopy are reported as percent increase over untreated controls.

[3] = tested on: soybeans (Glycine max) var. Adelphia; assay: Increasing flowering of plants (soybeans); type: in vivo, soybean (Glycine max); conditions: three weeks after spraying
Protocol: In the following tests seedling soybean plants growing in plastic cups are sprayed with aqueous-acetone solutions or dispersions of test compounds when they have reached the 2nd to 3rd trifoliate stage. Test solutions or dispersions are prepared with 0.25 v/v Colloidal BIOFILM® surfactant and sufficient test compound to provide the plants with 0.5, 0.25, 0.125 or 0.06 kg/ha of said compound when the test solutions are sprayed on said plants from an overhead sprayer delivering 747 l/ha of solution.
After spraying the plants are placed on greenhouse benches and watered and fertilized. Three weeks after spraying the plants are examined and the amount of flowering determined for all plants. Data obtained are reported in the table below as percent increase in flowering over untreated controls.
From the data reported in Table VIII below it can be seen that the compounds of the present invention applied at rates of from 0.06 to 0.25 kg/ha enhance flowering of treated plant more than 10% over untreated controls. This response is particularly desirable for treatment of flowering varieties of ornamental plants as well as agronomic crops.

barley (Hordeum vulgare) = assay: Dwarfing of barley (plant height, greenhouse, foliar spray); type: in vivo; conditions: three weeks after spraying
Protocol: as §1, §2, §3, §4, §5

[4] = rate 0.125 kg/ha, potassium salt
[5] = rate 0.25 kg/ha, potassium salt

Row | SMILES | % Reduction in Plant Height over untreated controls ([1]; rate 0.125 kg/ha) | % Reduction in Plant Height over untreated controls ([1]; rate 0.25 kg/ha) | % Reduction in Plant Height over untreated controls ([1]; rate 0.5 kg/ha) | % Increase in Plant Canopy over untreated controls ([2]; rate 0.125 kg/ha) | % Increase in axillary branching over untreated controls ([2]; rate 0.125 kg/ha) | % Increase in axillary branching over untreated controls ([2]; rate 0.25 kg/ha) | % Increase in Flowering over untreated controls ([3]; rate 0.125 kg/ha) | further results
1 | O=[N+]([O-])Nc1c(Br)cc(Br)cc1Br [1,1-Dimethylpiperidinium salt with 2,4,6-tribromo-N--aci-nit] [1,1-Dimethylpiperidinium salt with 2,4,6-tribromo-N--aci-nitroaniline] | > 25% | > 35% | > 50% | normal | normal | normal | normal | 
2 | Cn1c(-c2ccccc2)cc(-c2ccccc2)[n+]1C.O=[N+]([O-])[N-]c1c(Br)cc(Br)cc1I [1,2-Dimethyl-3,5-diphenylpyrazolium salt with 2,4-dibromo-6-iodo-N--aci-nitroaniline] | > 10% | > 15% | > 25% |  |  |  |  | % Increase in Flowering over untreated controls ([3]; rate 0.5 kg/ha): normal
3 | O=[N+]([O-])Nc1c(Br)cc(Br)cc1Br [2,4,6-Tribromo-N--nitroaniline with dibenzylamine] |  |  |  | normal | normal | normal | normal | 
4 | O=[N+]([O-])Nc1c(Br)cc(Br)cc1Br [2,4,6-Tribromo-N--nitroaniline with dodecylamine] |  |  |  | normal | normal |  | normal | 
5 | O=[N+]([O-])Nc1c(Br)cc(Br)cc1Br [2,4,6-Tribromo-N--nitroaniline, potassium salt] |  |  |  |  |  |  |  | % Reduction in Plant Height over untreated controls [1, 4]: > 5%; % Reduction in Plant Height over untreated controls [1, 5]: > 5%; % Reduction in Plant Height over untreated controls ([1]; rate 0.5 kg/ha, potassium salt): > 30%; % Increase in axillary branching over untreated controls [2, 4]: normal; % Increase in axillary branching over untreated controls [2, 5]: normal; % Increase in Plant Canopy over untreated controls ([2]; rate 0.5 kg/ha, potassium salt): normal; % Increase in Flowering over untreated controls ([3]; rate 0.5 kg/ha, potassium salt): normal; % Reduction in Plant Height over untreated controls (barley (Hordeum vulgare); rate 0.17 kg/ha, potassium salt): 2.7%; % Reduction in Plant Height over untreated controls (barley (Hordeum vulgare); rate 0.50 kg/ha, potassium salt): 11.8%; % Reduction in Plant Height over untreated controls (barley (Hordeum vulgare); rate 1.5 kg/ha, potassium salt): 2.0%
6 | O=[N+]([O-])Nc1c(Br)cc(Br)cc1Br [2,4,6-Tribromo-N--nitroaniline, sodium salt] |  |  |  |  |  |  |  | % Reduction in Plant Height over untreated controls ([1]; rate 0.125 kg/ha, sodium salt): > 35%; % Reduction in Plant Height over untreated controls ([1]; rate 0.25 kg/ha, sodium salt): > 40%; % Increase in Flowering over untreated controls ([3]; rate 0.5 kg/ha, sodium salt): normal; % Reduction in Plant Height over untreated controls (barley (Hordeum vulgare); rate 0.17 kg/ha, sodium salt): 6.2%; % Reduction in Plant Height over untreated controls (barley (Hordeum vulgare); rate 0.50 kg/ha, sodium salt): 13.0%; % Reduction in Plant Height over untreated controls (barley (Hordeum vulgare); rate 1.5 kg/ha, sodium salt): 13.0%
7 | O=[N+]([O-])Nc1c(Br)cc(Br)cc1Br [Methyltriphenyl phosphonium salt with 2,4,6-tribromo-N--aci-] [Methyltriphenyl phosphonium salt with 2,4,6-tribromo-N--aci-nitroaniline] | > 25% | > 35% | > 50% | normal | normal | normal | normal | 

— patent US4367339A, “Substituted N-nitroaniline compounds and inorganic and organic salts thereof useful for enhancing auxiliary branching, canopy flowering and crop yield of plant and as lodging inhibitors therefor” (priority 1980, dated 1983)
